One test has as its target human KOPR (hKOPR) (Homo sapiens (Human), UniProt P41145). The class given is binding.
The next test addresses hKOPR (Homo sapiens (Human), UniProt P41145). Briefly: biochemical. As to conditions: for Emax: read-out: Efficacy (Percent of the maximal effect of U50,488H).
The nature of another test: Forced swim test (FST). The class given is in vivo. Conditions: rats. The protocol: The FST is a two day procedure in which rats swim under conditions in which escape is not possible. On the first day, the rats are forced to swim for 15 minutes. The rats initially search for an escape from the water, but eventually adopt a posture of immobility in which they make only the movements necessary to keep their heads above water. Upon re-testing one day later, latencies to become immobile (an indicator of how rapidly the rats “give up” in response to a familiar stressor) are decreased, which is inferred as despair. Standard antidepressants such as desipramine (DMI) and fluoxetine (FLX) extend latencies to become immobile. Drug efficacy in this animal model is predictive of antidepressant efficacy in humans. The FST has been described by Mague et al., J. Pharmacol. Exp. Ther. 305:323 (2003).

Test [1] is described as follows: Intracranial self-stimulation (ICSS). The class given is in vivo. Conditions: 1.0 mg/kg, IP, rats, 1-hour test sessions.
A short description of the next test: Locomotor activity. The class given is in vivo. Conditions: rats.

The source of these data is patent US8492564B2 (priority 2008, dated 2013).

Like-named read-outs stand apart in the source and are kept apart here.

As for `COC(=O)[C@@H]1C[C@H](OC(C)=O)C(=O)[C@H]2[C@@]1(C)CC[C@H]1C(=O)O[C@H](C(=O)c3cccs3)C[C@]21C` [Compound 13], the Ki on human KOPR (hKOPR) is 38 ± 10 nM. Besides, the EC50 on hKOPR (read-out: EC50) came out at 101 ± 6 nM. For the same compound, the Emax on hKOPR came to 103 ± 1%.

The compound `COC(=O)[C@@H]1C[C@]2(C)[C@H]3C(=O)[C@@H](OC(C)=O)C[C@@H](C(=O)OC)[C@]3(C)CC[C@H]2C(=O)O1` [Compound 18] had an inhibition constant Ki on human KOPR (hKOPR) of 154 ± 27 nM. Moreover, the EC50 at hKOPR (read-out: EC50) amounted to 361 ± 25 nM. The Emax on hKOPR turned out to be 99 ± 2%.

Compound `COC(=O)[C@@H]1C[C@H](OC(C)=O)C(=O)[C@H]2[C@@]1(C)CC[C@H]1C(=O)O[C@H](C(=O)OC(C)C)C[C@]21C` [Compound 20] registered a Ki on human KOPR (hKOPR) of 109 ± 12 nM. For the same compound, the EC50 at hKOPR (read-out: EC50) was found to be 337 ± 54 nM. For the same compound, the Emax at hKOPR came out at 94 ± 2%.

For the compound `COC(=O)[C@@H]1C[C@H](OC(C)=O)C(=O)[C@H]2[C@@]1(C)CC[C@H]1C(=O)O[C@H](c3ccoc3)C[C@]21C` [Salvinorin A, salvinorin A], in the test “Forced swim test (FST)”, the “effect in the forced swim test” value is recorded as “depressive-like effects”. Also, in test [1], the ICSS thresholds entry was “significantly elevated”. Further, the “effect on locomotor activity” value in “Locomotor activity” is given as “without affecting locomotor activity”.

At human KOPR (hKOPR), `CCOC(=O)[C@@H]1C[C@]2(C)[C@H]3C(=O)[C@@H](OC(C)=O)C[C@@H](C(=O)OC)[C@]3(C)CC[C@H]2C(=O)O1` [Compound 19] displayed a Ki of 196 ± 23 nM. The EC50 at hKOPR (read-out: EC50) stood at 508 ± 8 nM. The Emax at hKOPR was found to be 94 ± 2%.

Regarding `C=Cc1occc1[C@@H]1C[C@]2(C)[C@H]3C(=O)[C@@H](OC(C)=O)C[C@@H](C(=O)OC)[C@]3(C)CC[C@H]2C(=O)O1` [Compound 3], the affinity at human KOPR (hKOPR), expressed as Ki, was 7.1 ± 0.1 nM. For the same compound, the EC50 at hKOPR (read-out: EC50) amounted to 4.6 ± 0.1 nM. The Emax on hKOPR was found to be 120 ± 6%.

As for `COC(=O)[C@@H]1C[C@H](OC(C)=O)C(=O)[C@H]2[C@@]1(C)CC[C@H]1C(=O)O[C@H](C(O)c3ccco3)C[C@]21C` (some centres unmarked) [Compound 17], the Ki on human KOPR (hKOPR) amounted to 20 ± 2 nM. Also, the EC50 on hKOPR (read-out: EC50) was found to be 36 ± 5 nM. Further, the Emax on hKOPR worked out at 114 ± 4%.

Turning to `CCOC[C@@H]1C[C@]2(C)[C@H]3C(=O)[C@@H](OC(C)=O)C[C@@H](C(=O)OC)[C@]3(C)CC[C@H]2C(=O)O1` [Compound 10], affinity on human KOPR (hKOPR) was put at a Ki of 497 ± 13 nM. In addition, on hKOPR, the EC50 was over 1000 nM.

Consider `COC[C@@H]1C[C@]2(C)[C@H]3C(=O)[C@@H](OC(C)=O)C[C@@H](C(=O)OC)[C@]3(C)CC[C@H]2C(=O)O1` [Compound 9], for which the affinity at human KOPR (hKOPR) corresponds to a Ki of 498 ± 71 nM. Also, the EC50 on hKOPR (read-out: EC50) came to 330 ± 30 nM. Besides, the Emax at hKOPR stood at 98 ± 2%.

Consider `COC(=O)[C@@H]1C[C@H](OC(C)=O)C(=O)[C@H]2[C@@]1(C)CC[C@H]1C(=O)O[C@H](COC(C)=O)C[C@]21C` [Compound 11], for which the Ki on human KOPR (hKOPR) turned out to be 555 ± 97 nM. For the same compound, the EC50 on hKOPR (read-out: EC50) was 299 ± 13 nM. The Emax on hKOPR was determined as 113 ± 3%.

`COC(=O)[C@@H]1C[C@H](OC(C)=O)C(=O)[C@H]2[C@@]1(C)CCC1C(=O)O[C@H](C(=O)O)C[C@@]12C` (some centres unmarked) [Compound 7] gave a Ki at human KOPR (hKOPR) of 55 ± 23 nM. Also, on hKOPR, the “Efficacy (Percent of the maximal effect of U50,488H)” value came to 99 ± 1%. The EC50 on hKOPR (read-out: EC50) amounted to 167 ± 35 nM.

Take `COC(=O)[C@@H]1C[C@H](OC(C)=O)C(=O)[C@H]2[C@@]1(C)CC[C@H]1C(=O)O[C@H](C(=O)c3cnccn3)C[C@]21C` [Compound 16]: the affinity on human KOPR (hKOPR) corresponds to a Ki of 83 ± 28 nM. Moreover, on hKOPR (read-out: EC50), the EC50 was 195 ± 6 nM. Also, the Emax at hKOPR was determined as 103 ± 3%.
